Laboratory results from patent publication US12215107B1, “Pyrazino[1′,2′:1,5]pyrazolo[4,3-c] [2,6] naphthyridine compounds as CK2 inhibitors” (KING FAISAL UNIVERSITY, priority 2024, dated 2025).

Legend:
PC3 (prostate) = assay: MTT in vitro cytotoxic activity assay, PC3; format: cell-based; details: Homo sapiens, Prostate cell, cells exposed for 96 hours, read-out: Cytotoxicity activity IC50 (50% inhibition of cell proliferation)
Protocol: (§1) Compounds 1-16 were screened for their in vitro cytotoxic activity utilizing a 3-(4,5-dimethyl-thiazol-2-yl)-2,5-diphenyltetrazolium bromide (MTT) assay against selected cancer human cell lines consisting of PC3 (prostate), HCT116 (colon), A375 (melanoma), H1299 (lung), MIAPaCa-2 (pancreas), HL60 (leukemia), MCF7 (breast), MDA-MB-231 (breast) (T. Mosmann, J. Immunol. Meth., 1983, 65, 55-63). The cells were cultured at 37° C. in RMPI1640 medium supplemented with 10% fetal bovine serum, 50 IU/mL penicillin, and 50 μg/mL streptomycin in a 5% CO2 incubator. All cells were sub-cultured 3 times/week by trypsinisation. Viable cells were seeded and allowed to adhere for 12 hours before a test drug was added in 96-well plates at an initial density of 1.0×10^5 cells/mL. Tumor cell lines were separately exposed to various concentrations of the tested compounds followed by incubation at a temperature of 37° C. during 96 hours inside a medium of fresh RMPI 1640. Cells were subsequently incubated at 37° C. using MTT at 0.5 mg/mL during 4 hours. After removal of supernatant, formazan crystals were dissolved in isopropanol and the optical density was measured at 570 nm. CX-4945 was used as a positive control.

HCT116 (colon) = assay: MTT in vitro cytotoxic activity assay, HCT116; format: cell-based; details: Homo sapiens, HCT-116, cells exposed for 96 hours, read-out: Cytotoxicity activity IC50 (50% inhibition of cell proliferation)
Protocol: as §1

A375 (melanoma) = assay: MTT in vitro cytotoxic activity assay, A375; format: cell-based; details: Homo sapiens, A-375, cells exposed for 96 hours, read-out: Cytotoxicity activity IC50 (50% inhibition of cell proliferation)
Protocol: as §1

H1299 (lung) = assay: MTT in vitro cytotoxic activity assay, H1299; format: cell-based; details: Homo sapiens, NCI-H1299, cells exposed for 96 hours, read-out: Cytotoxicity activity IC50 (50% inhibition of cell proliferation)
Protocol: as §1

MIAPaCa-2 (pancreas) = assay: MTT in vitro cytotoxic activity assay, MIAPaCa-2; format: cell-based; details: Homo sapiens, MIA PaCa-2, cells exposed for 96 hours, read-out: Cytotoxicity activity IC50 (50% inhibition of cell proliferation)
Protocol: as §1

HL60 (leukemia) = assay: MTT in vitro cytotoxic activity assay, HL60; format: cell-based; details: Homo sapiens, HL-60, cells exposed for 96 hours, read-out: Cytotoxicity activity IC50 (50% inhibition of cell proliferation)
Protocol: as §1

MCF7 (breast) = assay: MTT in vitro cytotoxic activity assay, MCF7; format: cell-based; details: Homo sapiens, cells exposed for 96 hours, read-out: Cytotoxicity activity IC50 (50% inhibition of cell proliferation)
Protocol: as §1

MDA-MB-231 (breast) = assay: MTT in vitro cytotoxic activity assay, MDA-MB-231; format: cell-based; details: Homo sapiens, cells exposed for 96 hours, read-out: Cytotoxicity activity IC50 (50% inhibition of cell proliferation)
Protocol: as §1

[1] = biological target: T1, recombinant human CK2 (RRββ-holoenzyme) (Homo sapiens, UniProt P68400); assay: CK2 Kinase Assay (33P-ATP, filter plate); format: biochemical; details: final ATP concentration 15 μM, 10 minutes at 30° C.; read-out: protein kinase CK2 IC50
T1 construct: purchased Millipore
Protocol: CK2 Kinase Assay was conducted using the protocol as described in Pierre F. et al; J. Med. Chem. 2011, 54, 635-654. The tested compounds in aqueous solution were added at a volume of 10 μL to a reaction mixture comprising 10 μL of assay dilution buffer (ADB; 20 mM MOPS, pH 7.2, 25 mM β-glycerol phosphate, 5 mM EGTA, 1 mM sodium orthovanadate, and 1 mM dithiothreitol), 10 μL of substrate peptide (RRRDDDSDDD, dissolved in ADB at a concentration of 1 mM), 10 μL of recombinant human CK2 (RRββ-holoenzyme, 25 ng dissolved in ADB; Millipore). Reactions were initiated by the addition of 10 μL of ATP solution (90% 75 mMMgCl2, 75 μM ATP (final ATP concentration: 15 μM) dissolved in ADB; 10% [γ-33P] ATP (stock 1 mCi/100 μL; 3000 Ci/mmol (Perkin-Elmer) and maintained for 10 minutes at 30° C. The reactions were quenched with 100 μL of 0.75% phosphoric acid and then transferred to and filtered through a phosphor cellulose filter plate (Millipore). After washing each well five times with 0.75% phosphoric acid, the plate was dried under vacuum for 5 min and, following the addition of 15 μL of scintillation fluid to each well, the residual radioactivity was measured using a Wallac […]. The IC50 values were derived from eight concentrations of test inhibitors.

T1 sequence (P68400 whole entry): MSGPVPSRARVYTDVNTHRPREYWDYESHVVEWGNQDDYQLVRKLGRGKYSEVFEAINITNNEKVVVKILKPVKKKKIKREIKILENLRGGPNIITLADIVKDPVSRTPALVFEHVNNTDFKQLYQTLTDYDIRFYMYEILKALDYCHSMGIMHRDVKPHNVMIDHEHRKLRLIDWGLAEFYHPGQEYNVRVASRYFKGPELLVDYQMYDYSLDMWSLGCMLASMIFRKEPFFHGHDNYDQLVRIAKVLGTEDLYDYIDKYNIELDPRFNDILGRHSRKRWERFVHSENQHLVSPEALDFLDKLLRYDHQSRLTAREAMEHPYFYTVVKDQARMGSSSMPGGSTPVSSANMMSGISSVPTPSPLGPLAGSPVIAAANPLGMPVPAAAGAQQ
T1 sequence (P67870 whole entry partner): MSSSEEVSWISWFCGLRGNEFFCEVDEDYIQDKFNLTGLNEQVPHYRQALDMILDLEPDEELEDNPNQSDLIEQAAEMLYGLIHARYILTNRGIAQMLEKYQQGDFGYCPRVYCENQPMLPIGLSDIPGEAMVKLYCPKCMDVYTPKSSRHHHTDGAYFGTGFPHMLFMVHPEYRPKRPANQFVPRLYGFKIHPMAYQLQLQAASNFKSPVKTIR

## Clc1cccc(Nc2nc3c(nn4ccncc34)c3cnccc23)c1 [Compound (1), N-(3-chlorophenyl)pyrazino[1′,2′:1,5]pyrazolo[4,3-c][2,6]naphthyridin-5-amine]
PC3 (prostate)
  IC50: 1100 nM
HCT116 (colon)
  IC50: 1500 nM
A375 (melanoma)
  IC50: 3200 nM
H1299 (lung)
  IC50: 1900 nM
MIAPaCa-2 (pancreas)
  IC50: 1000 nM
HL60 (leukemia)
  IC50: 3700 nM
MCF7 (breast)
  IC50: 4900 nM
MDA-MB-231 (breast)
  IC50: 4100 nM
[1]
  IC50: 22 nM
